Measurements reported in ChEMBL document CHEMBL5321282, “Design, Synthesis, and Biological Evaluation of Esculetin-Furoxan-DEAC Ternary Hybrids for Anti-Triple Negative Breast Cancer” (J Med Chem, 2023).
Activity calls are given as the source filed them. The rule behind the calls is not given here.

Experiments:
MDA-MB-231 [1] = test: Induction of apoptosis in human MDA-MB-231 cells assessed as increase in cleaved caspase-3 level incubated for 8 hrs by Western blotting analysis; type: functional, cell-based; settings: dose 5-20 nM
MDA-MB-231 [2] = test: Antiproliferative activity against human MDA-MB-231 cells assessed as effect on NO level at 20 nM measured after 24 hrs in presence of PTIO by MTT assay; type: functional, cell-based
MDA-MB-231 [3] = test: Induction of cell cycle arrest in human MDA-MB-231 cells assessed as accumulation of cells at G2 phase at 10 nM measured after 24 hrs by PI staining by flow cytometric analysis (Rvb =18.1%); type: functional
MDA-MB-231 [4] = test: Induction of apoptosis in human MDA-MB-231 cells assessed as early apoptotic cells at 5 nM incubated for 24 hrs by Annexin V-FITC/PI staining based flow cytometric analysis (reference value: 4.90%); type: functional
MDA-MB-231 [5] = test: Induction of apoptosis in human MDA-MB-231 cells assessed as increase in activation of caspase level incubated for 8 hrs by Western blotting analysis; type: functional, cell-based; settings: dose 5-20 nM
[6] = Selectivity index, ratio of IC50 for cytotoxicity against human L02 cells to IC50 for antiproliferative activity against human MDA-MB-231 cells; type: toxicity, cell-based; settings: L02 cells versus MDA-MB-231 cells, read-out: Ratio IC50
MDA-MB-231 [7] = test: Induction of apoptosis in human MDA-MB-231 cells assessed as increase in Bax level incubated for 24 hrs by Western blotting analysis; type: functional, cell-based; settings: dose 5-20 nM
MDA-MB-231 [8] = test: Antitumor activity against human MDA-MB-231 cells xenografted in BALB/C mouse assessed as increase in ROS level in tumor at 2.5 to 5 mg/kg, ip administered every 2 days measured after 3 weeks by DHE staining based analysis; type: functional, organism-based; settings: dose 2.5-5 mg/kg
MDA-MB-231 [9] = test: Induction of apoptosis in human MDA-MB-231 cells assessed as increase in cytoplasmic CytC level at 5 to 20 nM incubated for 8 hrs by Western blotting analysis; type: functional, cell-based; settings: dose 5-20 nM
MDA-MB-231 [10] = test: Induction of cell cycle arrest in human MDA-MB-231 cells assessed as accumulation of cells at G1 phase at 20 nM measured after 24 hrs by PI staining based flow cytometric analysis (Rvb =58%); type: functional
MDA-MB-231 [11] = test: Antiproliferative activity against human MDA-MB-231 cells assessed as inhibition of cell growth measured after 48 hrs by MTT assay; type: functional, cell-based; settings: MDA-MB-231, 48 h
MDA-MB-231 [12] = test: Induction of apoptosis in human MDA-MB-231 cells assessed as necrotic cells at 10 nM incubated for 24 hrs by Annexin V-FITC/PI staining based flow cytometric analysis (reference value: 0.11%); type: functional
[13] = Cytotoxicity against human MCF-10A cells assessed as inhibition in cell growth measured after 48 hrs by MTT assay; type: toxicity, cell-based
MDA-MB-231 [14] = test: Induction of apoptosis in human MDA-MB-231 cells assessed as necrotic cells at 5 nM incubated for 24 hrs by Annexin V-FITC/PI staining based flow cytometric analysis (reference value: 0.11%); type: functional
MDA-MB-231 [15] = test: Induction of apoptosis in human MDA-MB-231 cells assessed as decrease in mitochondrial SMAC level at 5 to 20 nM incubated for 8 hrs by Western blotting analysis; type: functional, cell-based; settings: dose 5-20 nM
MDA-MB-231 [16] = test: Induction of apoptosis in human MDA-MB-231 cells assessed as viable cells at 5 nM incubated for 24 hrs by Annexin V-FITC/PI staining based flow cytometric analysis (reference value: 90.1%); type: functional; settings: read-out: Activity
MDA-MB-231 [17] = test: Induction of apoptosis in human MDA-MB-231 cells assessed as viable cells at 10 nM incubated for 24 hrs by Annexin V-FITC/PI staining based flow cytometric analysis (reference value: 90.1%); type: functional; settings: read-out: Activity
MDA-MB-231 [18] = test: Induction of apoptosis in human MDA-MB-231 cells assessed as decrease in mitochondrial CytC level at 5 to 20 nM incubated for 8 hrs by Western blotting analysis; type: functional, cell-based; settings: dose 5-20 nM
MDA-MB-231 [19] = test: Induction of cell cycle arrest in human MDA-MB-231 cells assessed as accumulation of cells at S phase at 20 nM measured after 24 hrs by PI staining based flow cytometric analysis (Rvb =24.1%); type: functional
MDA-MB-231 [20] = test: Induction of apoptosis in human MDA-MB-231 cells assessed as effect on ANT level at 5 to 20 nM incubated for 8 hrs by Western blotting analysis; type: functional, cell-based; settings: dose 5-20 nM
MDA-MB-231 [21] = test: Antiproliferative activity against human MDA-MB-231 cells assessed as induction of ROS production at 20 nM in presence of NAC measured after 24 hrs by MTT assay; type: functional, cell-based
MDA-MB-231 [22] = test: Induction of cell cycle arrest in human MDA-MB-231 cells assessed as accumulation of cells at G2/M phase at 5 to 20 nM measured after 24 hrs by PI staining by flow cytometric analysis (Rvb =11.70%); type: functional; settings: dose 5-20 nM
MDA-MB-231 [23] = test: Induction of apoptosis in human MDA-MB-231 cells assessed as early apoptotic cells at 20 nM incubated for 24 hrs by Annexin V-FITC/PI staining based flow cytometric analysis (reference value: 4.90%); type: functional
MDA-MB-231 [24] = test: Induction of apoptosis in human MDA-MB-231 cells assessed as total apoptotic cells at 5 to 20 nM incubated for 24 hrs by Annexin V-FITC/PI staining based flow cytometric analysis (Rvb =10.03%); type: functional; settings: dose 5-20 nM
MDA-MB-231 [25] = test: Induction of apoptosis in human MDA-MB-231 cells assessed as early apoptotic cells at 10 nM incubated for 24 hrs by Annexin V-FITC/PI staining based flow cytometric analysis (reference value: 4.90%); type: functional
MDA-MB-231 [26] = test: Induction of cell cycle arrest in human MDA-MB-231 cells assessed as accumulation of cells at G2 phase at 20 nM measured after 24 hrs by PI staining by flow cytometric analysis (Rvb =18.1%); type: functional
A549 = test: Antiproliferative activity against human A549 cells assessed as inhibition of cell growth measured after 48 hrs by MTT assay; type: functional, cell-based; settings: A549, 48 h
HCT-116 = test: Antiproliferative activity against human HCT-116 cells assessed as inhibition of cell growth measured after 48 hrs by MTT assay; type: functional, cell-based; settings: HCT-116, 48 h
MDA-MB-231 [27] = test: Induction of apoptosis in human MDA-MB-231 cells assessed as late apoptotic cells at 5 nM incubated for 24 hrs by Annexin V-FITC/PI staining based flow cytometric analysis (reference value: 4.90%); type: functional
MDA-MB-231 [28] = test: Induction of cell cycle arrest in human MDA-MB-231 cells assessed as accumulation of cells at S phase at 5 nM measured after 24 hrs by PI staining by flow cytometric analysis (Rvb =24.1%); type: functional
MDA-MB-231 [29] = test: Antiproliferative activity against human MDA-MB-231 cells assessed as effect on NO level at 25 uM incubated for 2 hrs; type: functional, cell-based
MDA-MB-231 [30] = test: Induction of apoptosis in human MDA-MB-231 cells assessed as increase in CypD level incubated for 8 hrs by Western blotting analysis; type: functional, cell-based; settings: dose 5-20 nM
MDA-MB-231 [31] = test: Induction of apoptosis in human MDA-MB-231 cells assessed as increase in cytoplasmic SMAC level at 5 to 20 nM incubated for 8 hrs by Western blotting analysis; type: functional, cell-based; settings: dose 5-20 nM
MDA-MB-231 [32] = test: Induction of mitochondrial membrane potential depolarization in human MDA-MB-231 cells assessed as decrease in red fluorescence at 5 to 20 nM incubated for 24 hrs by JC-1 staining based inverted fluorescent microscopic analysis; type: functional, cell-based; settings: dose 5-20 nM

IC50 (MDA-MB-231 [11]): 8 nM
IC50 (A549): 840 nM
IC50 (HCT-116): 4.14 µM
SMILES: CCN(CC)c1ccc2cc(C(=O)OCCCCCOc3cc4ccc(=O)oc4cc3OCCCCCCOc3no[n+]([O-])c3S(=O)(=O)c3ccccc3)c(=O)oc2c1
Activity (MDA-MB-231 [1]): Dose-Dependent Effect
Activity (MDA-MB-231 [2]): inactive
Activity (MDA-MB-231 [3]): 13.8%
Activity (MDA-MB-231 [4]): 12.2%
Activity (MDA-MB-231 [5]): Dose-Dependent Effect
selectivity ratio [6]: 1490
Activity (MDA-MB-231 [7]): Dose-Dependent Effect
Activity (MDA-MB-231 [8]): Active
Activity (MDA-MB-231 [9]): Active
Activity (MDA-MB-231 [10]): 57.9%
Activity (MDA-MB-231 [12]): 0.83%
IC50 at 48 h [13]: > 50 µM
Activity (MDA-MB-231 [14]): 0.26%
Activity (MDA-MB-231 [15]): Active
viability at 0.005 µM (MDA-MB-231 [16]): 67.1%
viability at 0.01 µM (MDA-MB-231 [17]): 47.3%
Activity (MDA-MB-231 [18]): Active
Activity (MDA-MB-231 [19]): 21%
Activity (MDA-MB-231 [20]): inactive
Activity (MDA-MB-231 [21]): inactive
Activity (MDA-MB-231 [22]): 22.97%
Activity (MDA-MB-231 [23]): 31.9%
Activity (MDA-MB-231 [24]): 71.69%
Activity (MDA-MB-231 [25]): 21.9%
Activity (MDA-MB-231 [26]): 21.4%
Activity (MDA-MB-231 [27]): 20.4%
Activity (MDA-MB-231 [28]): 29.3%
Activity (MDA-MB-231 [29]): Active
Activity (MDA-MB-231 [30]): Dose-Dependent Effect
Activity (MDA-MB-231 [31]): Active
Activity (MDA-MB-231 [32]): Active
